# From patent publication US12139472B2, “Inhibitors of advanced glycation end products” (priority 2019, dated 2024)
# Columns and labels:
# CYP2C19 = target: T1, CYP2C19 (Homo sapiens, UniProt P33261); assay: CYP2C19 inhibition (HLM), omeprazole; type: in vitro ADME
# T1 construct: Two studies were conducted in human liver microsomes (HLM); tissue Eurofins G232 panel; host or cells: human liver microsomes
# Protocol: (§1) Compound 5 (PTG-630 free base) and 7 additional compounds for CYP3A P450 inhibition.
# (§2) Two studies were conducted in human liver microsomes (HLM). Lead candidate PTG-630 was tested using the Eurofins G232 panel (Drug Metab Dispos. 2001 January; 29(1):23-9), where inhibition was measured against seven CYP enzymes; CYP3A4 was tested using two different substrates, midazolam and testosterone. In a second study, inhibition of CYP3A4 (midazolam substrate only) was compared for 8 compounds of interest. The test protocol involved one-point measurements in duplicate, where inhibition was measured at a fixed 10 μM concentration of candidate inhibitors. In all cases, the substrate for each CYP enzyme was at a concentration equal to its specific Km value that was independently obtained from an 8-point dose-response study. Based on the observed value for percent inhibition for each test compound, we calculated of an IC50 assuming a competitive mode of inhibition. If percent inhibition for an inhibitor at a concentration of [I] is denoted by P, then: IC50=[I]*(100−P)/P In the single-point assay, [I] is 10 μM. If measured inhibition is 10%, then IC50=10*(100-10)/10=90 μM. […] As discussed in Lin et al. (J Pharm Sci. 2007 September; 96(9):2485-93; doi: 10.1002/jps.20884), CYP inhibition is broadly interpreted as being “potent” if IC50<1 μM, “moderate” if 1 μM<IC50<10 μM, and “weak” if IC50>10 μM.
# [1] = Pharmacokinetic study for PTG-630 (IV and PO): plasma, whole blood, tissues, urine; type: in vivo, Sprague Dawley rats
# Protocol: The samples were analyzed in two batches with standards and QCs prepared on rat plasma and rat urine. Analyst® 1.6 (SCIEX) software was used for statistical analysis of bioanalytical data. […] Dose samples collected at 0.083 h-6 h postdose were diluted 4 times with SD rat plasma prior to plating. Twenty-four (24) hours plasma samples were assayed without dilution. […] Two sciatic nerve samples were excluded from analysis, due to the insufficient sample size. […] The 12 non-cannulated animals were arbitrarily assigned to groups upon arrival and housed together throughout the experiment. The animals were acclimated to their designated housing for at least 24 hours before the first day of dosing. […] Blood samples were collected via cannula from IV dosed rats or by cardiac stick from PO dosed rats at the specified time points for sampling pharmacokinetics. Blood was collected into K2EDTA tubes. Tubes were mixed gently after blood collection, chilled and centrifuged at 3000 rpm, 4° C. within 30 minutes upon collection. The samples were centrifuged at 4° C. and the resultant plasma separated. […] Urine from Group 1 was collected via polycarbonate tubes from rats placed in drug metabolism cages. Urine was maintained and room temperature through the collection period.
# CYP3A = type: in vitro ADME, human; conditions: HLM
# Excerpt: as §1
# Imidazole (and benzimidazole) containing drugs are ubiquitous in pharmacological practice; however, drug-drug interactions (DDI) have been observed with some imidazole-containing classes, such as the antifungal azoles typified by ketoconazole. It is believed that the imidazole moiety accounts for their ability to inhibit CYP3A, the major DDI enzyme that metabolizes up to 50% of common drugs. The compounds of the disclosure incorporate an imidazole moiety attached to a pyridine ring via the imidazole C-2. They all share an imidazo-hydroxypyridine theme that can bind redox metal ions, while differing in the nature of the X side-chain. The potential of the compounds of the disclosure for DDI was evaluated by screening their inhibition of CYP3A.
# as §2
# [2] = plasma, PO 100 mg/kg vs IV 5 mg/kg
# T1 sequence (P33261 whole entry): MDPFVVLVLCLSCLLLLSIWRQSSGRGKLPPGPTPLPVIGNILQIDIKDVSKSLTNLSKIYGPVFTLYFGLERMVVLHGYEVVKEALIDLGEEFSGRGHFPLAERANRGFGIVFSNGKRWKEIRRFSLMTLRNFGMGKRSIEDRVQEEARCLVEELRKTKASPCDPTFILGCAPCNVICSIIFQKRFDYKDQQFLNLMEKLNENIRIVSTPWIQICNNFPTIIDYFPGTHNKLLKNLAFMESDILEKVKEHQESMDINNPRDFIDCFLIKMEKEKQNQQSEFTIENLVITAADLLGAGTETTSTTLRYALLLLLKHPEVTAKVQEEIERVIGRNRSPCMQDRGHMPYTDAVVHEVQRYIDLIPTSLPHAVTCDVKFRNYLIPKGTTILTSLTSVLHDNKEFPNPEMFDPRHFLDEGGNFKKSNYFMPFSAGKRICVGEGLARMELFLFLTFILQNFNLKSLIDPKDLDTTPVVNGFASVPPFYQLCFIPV
smiles,measurement,setting,value
Cc1ncc(CN2CCOCC2)c(-c2ncc[nH]2)c1O [PTG-630],IC50,"CYP2C19; omeprazole, from one-point % inhibition at 10 μM, IC50=[I]*(100−P)/P, read-out: Estimated IC50",26.4 µM
same,P % inhib,"CYP2C19; substrate omeprazole at Km, Inhib Conc. 1.0E−05 M",27.5%
same,fold decrease in AUClast for PO route over IV route,[1]; [2],4 fold
same,fold decrease in mean Cmax for PO route over IV route,[1]; [2],17 fold
same,"Mean Residence Time (MRT) in plasma, single IV versus PO group","[1]; rat, in vivo",comparable
same,"bioavailable, PO route, based on AUCinf","[1]; rat, in vivo",< 1%
same,"increase in the half-life in plasma, IV route in comparison with PO route","[1]; rat, in vivo",4.25 folds
same,terminal phase half-life,"[1]; rat, in vivo, iv",15.8 h
same,AUClast,"[1]; rat, in vivo, iv, 5 mg/kg",34000 ng·h/mL
same,Cmax,"[1]; rat, in vivo, iv, 5 mg/kg","20,400 ng/mL"
same,AUC last in liver higher than in plasma,"[1]; rat, in vivo, po",2.6 folds
same,Elimination phase half-life (t1/2),"[1]; rat, in vivo, po",1.35 h
same,Half-life,"[1]; rat, in vivo, po",4.53 h
same,Tmax in tissues,"[1]; rat, in vivo, po",1 h
same,absorption in tissues (in words),"[1]; rat, in vivo, po",rapidly absorbed in tissues without delay
same,detection in tissues 24 hours postdose,"[1]; rat, in vivo, po","not detectable in any tissue, except plasma"
same,"exposure in kidney higher than in plasma, based on Cmax","[1]; rat, in vivo, po",3.4 folds
same,"exposure in liver higher than in plasma, based on Cmax","[1]; rat, in vivo, po",5.47 folds
same,exposure in muscle (lowest) versus plasma,"[1]; rat, in vivo, po",comparable to those in plasma
same,half-life,"[1]; rat, in vivo, po",3.71 h
same,half-life in brain relative to plasma (times higher),"[1]; rat, in vivo, po",1.3 times
same,level of exposure in selected tissues exceeds the exposure in plasma (up to),"[1]; rat, in vivo, po",3-5 folds
same,quantifiable in tissues,"[1]; rat, in vivo, po",quantifiable in all tested tissues
same,AUClast,"[1]; rat, in vivo, po, 100 mg/kg",8600 ng·h/mL
same,blood brain permeability (in words),"[1]; rat, po",indicating blood brain permeability
same,Estimated IC50,"CYP3A; midazolam, from one-point % inhibition at 10 μM, IC50=[I]*(100−P)/P",— None
same,P % inhib,"CYP3A; substrate midazolam at Km, Inhib Conc. 1.0E−05 M",−12.1%
